Entries after “also recorded” stand apart in the source; their conditions may differ. Non-standard residues stand in square brackets, D forms with d. Primed or numbered codes have the meaning given here. No end group written: not given here. pS′ = not defined here
How the values were obtained:
human GPR139 [1] = biological target: T1, human GPR139 (Homo sapiens, UniProt Q6DWJ6); test: Fluo-4 Ca2+-assay, antagonist testing against EC80; type: cell-based; conditions: against EC80 (800 nM) of cmp1a; data not shown
T1 sequence (Q6DWJ6 1-353): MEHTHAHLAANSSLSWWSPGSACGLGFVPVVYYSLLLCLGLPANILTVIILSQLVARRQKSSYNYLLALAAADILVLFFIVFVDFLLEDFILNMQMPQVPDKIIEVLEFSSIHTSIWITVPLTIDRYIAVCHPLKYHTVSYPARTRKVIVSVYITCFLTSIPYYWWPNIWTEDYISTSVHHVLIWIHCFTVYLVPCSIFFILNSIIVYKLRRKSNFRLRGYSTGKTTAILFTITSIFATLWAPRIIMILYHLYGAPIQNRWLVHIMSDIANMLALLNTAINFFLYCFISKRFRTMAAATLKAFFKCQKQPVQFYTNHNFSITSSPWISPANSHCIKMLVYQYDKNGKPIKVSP

human GPR139 [2] = biological target: T1, human GPR139; test: Fluo-4 Ca2+-assay, agonist testing on CHO-GPR139; type: cell-based; conditions: for agonist activity on GPR139: CHO-GPR139, result in words; for relative Emax ± SEM: compared to Emax of cmp1a
MC4R = MC4R (Homo sapiens, UniProt P32245); test: cAMP accumulation assay; type: cell-based; conditions: tested in the highest concentration; normalized to Emax of α-MSH
Sequence of MC4R (P32245 whole entry, species assumed): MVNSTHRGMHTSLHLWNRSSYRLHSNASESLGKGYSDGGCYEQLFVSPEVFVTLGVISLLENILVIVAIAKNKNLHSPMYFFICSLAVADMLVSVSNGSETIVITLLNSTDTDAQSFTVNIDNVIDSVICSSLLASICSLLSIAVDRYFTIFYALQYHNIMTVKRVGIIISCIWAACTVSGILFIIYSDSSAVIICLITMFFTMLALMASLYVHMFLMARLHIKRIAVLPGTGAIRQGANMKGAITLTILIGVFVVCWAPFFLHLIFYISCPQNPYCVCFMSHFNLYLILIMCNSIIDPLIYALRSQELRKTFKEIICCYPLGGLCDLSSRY

GPR139 [3] = conditions: read-out: EC50 on GPR139; ref Isberg et al., 2014; cited from earlier work
[4] = biological target: T2, human muscarinic acetylcholine receptor M1 (Homo sapiens, UniProt P11229); test: Fluo-4 Ca2+-assay on CHO-M1; type: cell-based; conditions: CHO-M1, specificity test; data not shown
T2 sequence (P11229 1-460): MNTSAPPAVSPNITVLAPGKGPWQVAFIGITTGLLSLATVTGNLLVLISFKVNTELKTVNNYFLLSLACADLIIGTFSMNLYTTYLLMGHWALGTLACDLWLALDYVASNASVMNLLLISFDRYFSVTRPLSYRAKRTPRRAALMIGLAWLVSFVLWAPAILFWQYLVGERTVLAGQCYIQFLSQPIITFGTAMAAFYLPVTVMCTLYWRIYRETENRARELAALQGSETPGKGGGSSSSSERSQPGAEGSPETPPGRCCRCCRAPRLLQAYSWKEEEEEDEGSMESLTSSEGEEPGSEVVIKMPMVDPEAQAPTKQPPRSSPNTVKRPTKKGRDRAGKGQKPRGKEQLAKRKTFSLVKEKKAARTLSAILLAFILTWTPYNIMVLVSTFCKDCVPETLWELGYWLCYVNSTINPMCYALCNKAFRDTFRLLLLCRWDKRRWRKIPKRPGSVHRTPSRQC

GPR139 [5] = conditions: rats; ref Liu et al., 2015; cited from earlier work

Compound | antagonist activity on GPR139 (human GPR139 [1]) | agonist activity on GPR139 (human GPR139 [2]) | also measured
Ac-SYSMEHFRW-NH2 [cap-α-MSH1-9] | – | – | response of α-MSH on MC4R (MC4R): 50%; Emax at 61 µM (human GPR139 [2]; read-out: relative Emax ± SEM): 53 ± 9%
N[C@@H](Cc1c[nH]c2ccccc12)C(=O)O [L-Trp, L-tryptophan] | – | – | EC50 (GPR139 [3]): 220 µM
γ1-melanocyte stimulating hormone [γ1-MSH] | No agonist or antagonist activity | No agonist or antagonist activity; also recorded: did not show any activity | –
N=C(N)NCCC[C@H](NC(=O)[C@H](Cc1ccccc1)NC(=O)[C@@H](N)Cc1c[nH]cn1)C(=O)N[C@@H](Cc1c[nH]c2ccccc12)C(=O)O [HFRW] | – | – | Emax (human GPR139 [2]; read-out: relative Emax ± SEM): 64 ± 6%
CSCC[C@H](NC(=O)[C@H](CO)NC(=O)[C@H](Cc1ccc(O)cc1)NC(=O)[C@H](CO)NC(C)=O)C(=O)N[C@@H](CCC(=O)O)C(=O)N[C@@H](Cc1c[nH]cn1)C(=O)N[C@@H](Cc1ccccc1)C(=O)N[C@@H](CCCNC(=N)N)C(=O)N[C@@H](Cc1c[nH]c2ccccc12)C(=O)NCC(N)=O [cap-α-MSH1-10] | – | – | Emax at 14 µM (human GPR139 [2]; read-out: relative Emax ± SEM): 31 ± 4%
COc1cc(OC)cc(C(=O)NNC(=O)Nc2cccc3ccccc23)c1 [compound 1a, 2-(3,5-dimethoxybenzoyl)-N-(naphthalen-1-yl)hydrazine-1-carboxamide] | – | – | EC80 on GPR139 (human GPR139 [2]; concentration used for antagonist testing): 0.8 µM
CSCC[C@H](NC(=O)[C@H](CCCNC(=N)N)NC(=O)[C@H](Cc1ccc(O)cc1)NC(=O)[C@@H]1CCCN1C(=O)CNC(=O)[C@H](CCC(=O)O)NC(=O)[C@H](CC(=O)O)NC(=O)[C@H](CCCCN)NC(=O)[C@H](CCCCN)NC(=O)[C@H](CCC(=O)O)NC(=O)[C@H](C)N)C(=O)N[C@@H](CCC(=O)O)C(=O)N[C@@H](Cc1c[nH]cn1)C(=O)N[C@@H](Cc1ccccc1)C(=O)N[C@@H](CCCNC(=N)N)C(=O)N[C@@H](Cc1c[nH]c2ccccc12)C(=O)NCC(=O)N[C@@H](CO)C(=O)N1CCC[C@H]1C(=O)N1CCC[C@H]1C(=O)N[C@@H](CCCCN)C(=O)N[C@@H](CC(=O)O)C(=O)O [β-MSH] | – | showed agonist activity | activity on the muscarinic acetylcholine M1 receptor [4]: none of these peptides showed any activity; fold more potent on GPR139 than L-Trp and L-Phe (human GPR139 [2]; compared with L-Trp (EC50 = 220 μM) and L-Phe (EC50 = 320 μM)): 20–120 fold; Emax (human GPR139 [2]; read-out: relative Emax ± SEM): 101 ± 11%
SY[pSer]SMEHFRWGKPV-NH2 (N-terminal SY[pSer]; C-terminal amide) [α-MSHP-Ser] | neither of the two peptides showed any agonist or antagonist activity | neither of the two peptides showed any agonist or antagonist activity | –
C[C@H](NC(=O)CNC(=O)c1cccc(Cl)c1)c1ccccc1 [JNJ-63533054] | – | – | spontaneous locomotion activity (GPR139 [5]): decreased spontaneous locomotion activity
MEHFRWG [α-MSH4-10] | – | – | relative Emax ± SEM (human GPR139 [2]; at 101 μM (highest concentration tested, no plateau)): 13 ± 2 (at 101 μM) %
26RFa | No agonist or antagonist activity | No agonist or antagonist activity | –
N[C@@H](Cc1ccccc1)C(=O)O [L-Phe, L-phenylalanine] | – | – | EC50 (GPR139 [3]): 320 µM
SY[pSer]SMEHFRWGKPVGKK (SY[pS′]SMEHFRWGKPVGKK) [ACTH1-16,P-Ser] | neither of the two peptides showed any agonist or antagonist activity | neither of the two peptides showed any agonist or antagonist activity | –
cap-α-MSH4-10: α-MSH4-10 (MEHFRWG), N-terminal acetylated and C-terminal amidated | – | – | relative Emax ± SEM (human GPR139 [2]; at 16 μM (highest concentration tested, no plateau)): 21 ± 8 (at 16 μM) %

Further lines, with some results ahead:

antagonist activity on GPR139 (human GPR139 [1]) | agonist activity on GPR139 (human GPR139 [2]) | Compound | also measured
No agonist or antagonist activity | No agonist or antagonist activity | melanin-concentrating hormone [MCH] | –
No agonist or antagonist activity | No agonist or antagonist activity | thyrotropin releasing hormone [TRH] | –
No agonist or antagonist activity | No agonist or antagonist activity | oxytocin | –
No agonist or antagonist activity | No agonist or antagonist activity | [Arg^8]-vasopressin | –

Reference: article PMC5218887 (Neurochemistry International, 2017)
